{"source": "patent US20160060322A1", "about": "“RELAXIN-LIKE PEPTIDES AND USES THEREOF” (ANGION BIOMEDICA CORP., priority 2012, published 2016)", "tested_on": "HEK-293T cells", "assay": "cAMP production in parental HEK-293T cells lacking RXFP1", "format": "cell-based", "conditions": "parental HEK-293T cells (lack RXFP1); H2R 10 ng/mL"}
{"substance": "H2R: ~6 kd peptide hormone, 24 amino acid A chain (SEQ ID NO:5) and 29 amino acid B chain (SEQ ID NO:6) linked by disulfide bridges (chain 1 ZLYSALANKCCHVGCTKRSLARFC; chain 2 DSWMEEVIKLCGRELVRAQIAICGMSTWS; disulfide bridges; listed as Homo sapiens)", "values": [{"measurement": "cAMP response in parental cells", "value": "no cAMP response"}]}
